Test results: patent publication US20170066759A1, “AROMATIC 5-MEMBERED HETEROCYCLIC DERIVATIVE HAVING TRPV4-INHIBITING ACTIVITY” (Shionogi & Co., Ltd., priority 2012, published 2017)

biological target: T1, human TRPV4 (hTRPV4/CHO cells) (Homo sapiens, UniProt Q9HBA0); experiment: Test Example 1: TRPV4 inhibitory activity (IC50 value), 4α-PDD stimulation, Fluo4 calcium fluorescence (FLIPR TETRA); type: cell-based; conditions: 1 μmol/L 4α-PDD, Fluo4-AM, read-out: TRPV4 inhibitory activity (IC50 value)
T1 construct: expressed in transfected cells; host or cells: CHO-K1
T1 sequence (Q9HBA0 whole entry): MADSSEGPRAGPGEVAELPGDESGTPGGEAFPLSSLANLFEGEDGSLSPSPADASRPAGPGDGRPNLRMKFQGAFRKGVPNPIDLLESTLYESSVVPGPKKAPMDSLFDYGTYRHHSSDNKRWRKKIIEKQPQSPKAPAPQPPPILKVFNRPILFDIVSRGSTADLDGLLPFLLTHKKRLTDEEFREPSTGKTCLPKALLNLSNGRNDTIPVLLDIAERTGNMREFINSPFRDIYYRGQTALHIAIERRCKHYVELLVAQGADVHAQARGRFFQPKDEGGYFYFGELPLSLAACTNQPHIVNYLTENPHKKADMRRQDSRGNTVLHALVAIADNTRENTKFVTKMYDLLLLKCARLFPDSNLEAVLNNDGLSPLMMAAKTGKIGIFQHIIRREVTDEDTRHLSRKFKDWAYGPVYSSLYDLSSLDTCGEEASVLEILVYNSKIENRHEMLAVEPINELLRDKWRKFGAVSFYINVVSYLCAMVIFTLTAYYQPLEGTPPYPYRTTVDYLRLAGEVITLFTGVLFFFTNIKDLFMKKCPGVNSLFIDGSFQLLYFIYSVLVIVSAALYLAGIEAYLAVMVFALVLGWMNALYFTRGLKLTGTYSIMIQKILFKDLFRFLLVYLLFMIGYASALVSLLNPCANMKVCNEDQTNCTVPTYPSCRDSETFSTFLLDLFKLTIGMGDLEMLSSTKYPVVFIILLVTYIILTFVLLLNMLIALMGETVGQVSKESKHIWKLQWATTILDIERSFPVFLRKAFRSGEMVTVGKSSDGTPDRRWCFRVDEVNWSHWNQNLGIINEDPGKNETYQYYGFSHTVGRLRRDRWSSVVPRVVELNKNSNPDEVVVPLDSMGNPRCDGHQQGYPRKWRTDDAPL

Compound	IC50
Cc1nc(C)c(-c2csc(NC(=O)Cc3ccc(S(=O)(=O)N4CCCCC4)cc3)n2)s1 [Compound I-156]	30 nM

same assay, conditions: Test Example 1, 4α-PDD stimulation, read-out: Test 1 IC50

Compound	IC50
Cc1nc(C)c(-c2csc(NC(=O)Cc3cccc(I)c3)n2)s1 [Compound I-443]	< 100 nM
Cc1nc(CO)sc1-c1csc(NC(=O)[C@H]2C[C@@H](OCc3ccc(Cl)cc3)C2)n1 [Compound I-331]	< 100 nM
Cc1nc(CNS(C)(=O)=O)sc1-c1csc(NC(=O)Cc2ccc(S(=O)(=O)C(F)(F)F)cc2)n1 [Compound I-399]	1000 to 8000 nM
CC(O)c1nc(CO)sc1-c1csc(NC(=O)Cc2ccc(S(=O)(=O)C(F)(F)F)cc2)n1 (racemic) [Compound I-235]	< 100 nM
Cc1nc(C(=O)NCCN(C)C)sc1-c1csc(NC(=O)Cc2c(F)cccc2F)n1 [Compound I-126]	1000 to 8000 nM
Cc1nc(C)c(-c2csc(NC(=O)Cc3cc(C(=O)N[C@H](c4ccccc4)C(F)(F)F)cc([N+](=O)[O-])c3)n2)s1 [Compound I-517]	< 100 nM
Cc1nc(CO)sc1-c1csc(NC(=O)C2CN(c3cccnc3Br)C2)n1 [Compound I-311]	< 100 nM
Cc1nc(C(C)O)sc1-c1csc(NC(=O)C2CN(c3ccc(C(F)(F)F)cn3)C2)n1 (racemic) [Compound I-473]	100 to 1000 nM
Cc1nc(C)c(-c2csc(NCC(F)(F)c3ccccc3)n2)s1 [II-33]	1000 to 8000 nM
Cc1nc(C)c(-c2nc(NC(=O)Cc3c(F)cccc3F)sc2C(=O)NCc2ccccc2)s1 [Compound I-83]	1000 to 8000 nM
COc1cc(CC(=O)Nc2nc(-c3sc(C)nc3C)cs2)cc(C(=O)NC(C)(C)C(F)(F)F)c1 [Compound I-528]	< 100 nM
Cc1nc([C@@H](C)O)sc1-c1csc(NC(=O)Cc2ccc(S(=O)(=O)C(F)(F)F)cc2)n1 [Compound I-455]	< 100 nM
Cc1nc(C)c(-c2csc(NC(=O)C3Cc4ccccc4N3C(=O)C(F)(F)F)n2)s1 (stereo not shown) [Compound I-176]	< 100 nM
CN(C)C(=O)NCc1nc(CO)sc1-c1csc(NC(=O)Cc2ccc(S(=O)(=O)C(F)(F)F)cc2)n1 [Compound I-390]	< 100 nM
Cc1nc(C)c(-c2nc(NC(=O)Cc3c(F)cccc3F)sc2-c2cccc(N(C)C)c2)s1 [Compound I-68]	1000 to 8000 nM
Cc1nc(CO)sc1-c1csc(NC(=O)C2CC(=O)C2)n1 [Compound I-267]	1000 to 8000 nM
Cc1nc(C(F)F)sc1-c1csc(NC(=O)C2CC2(F)F)n1 (stereo not shown) [Compound I-112]	1000 to 8000 nM
Cc1nc(C)c(-c2csc(NC(=O)Cn3cc(CCCC#N)nn3)n2)s1 [Compound I-429]	1000 to 8000 nM
Cc1nc(C)c(-c2csc(NC(=O)Cc3cccc(OC(F)(F)F)c3)n2)s1 [Compound I-100]	< 100 nM
Cc1nc(C)c(-c2csc(NC(=O)C3(CC(=O)OC(C)(C)C)CN(c4ccc(C(F)(F)F)cc4)C3)n2)s1 (racemic) [Compound I-519]	< 100 nM
Cc1ncsc1-c1csc(NC(=O)Cc2c(F)cccc2F)n1 [Compound I-540]	100 to 1000 nM
Cc1nc(C)c(-c2csc(NC(=O)Cc3ccc(S(=O)(=O)CC(F)F)cc3)n2)s1 [Compound I-143]	100 to 1000 nM
Cc1nc(C(N)=O)sc1-c1csc(NC(=O)Cn2cc(Cl)cn2)n1 [Compound I-127]	100 to 1000 nM
CC(=O)NC(C)c1nc(CO)sc1-c1csc(NC(=O)Cc2ccc(S(=O)(=O)C(F)(F)F)cc2)n1 (single isomer, unassigned) [Compound I-481]	100 to 1000 nM
Cc1nc(C)c(-c2csc(NC(=O)C3CCN(c4ncc(C(F)(F)F)cn4)CC3)n2)s1 [Compound I-379]	< 100 nM
Cc1nc(C)c(-c2csc(NC(=O)Cc3ccc(S(=O)(=O)N(C)c4ccccc4)cc3)n2)s1 [Compound I-159]	< 100 nM
COC(=O)NCc1nc(CO)sc1-c1csc(NC(=O)Cc2ccc(S(=O)(=O)C(F)(F)F)cc2)n1 [Compound I-435]	< 100 nM

Compound	IC50
Cc1nc(C)c(-c2csc(NC(=O)Cn3cc(-c4cccc(S(C)(=O)=O)c4)cn3)n2)s1 [Compound I-150]	< 100 nM
Cc1nc(C)c(-c2csc(NC(=O)Cc3ccc(C(F)(F)F)cn3)n2)s1 [Compound I-104]	< 100 nM
O=C(Nc1nc(-c2sc(CO)nc2CO)cs1)[C@H]1C[C@@H](OCc2ccc(C(F)(F)F)cc2)C1 [Compound I-550]	100 to 1000 nM
NC(=O)NCc1nc(CO)sc1-c1csc(NC(=O)Cc2ccc(S(=O)(=O)C(F)(F)F)cc2)n1 [Compound I-381]	100 to 1000 nM
Cc1nc(C)c(-c2csc(NC(=O)Cn3cc(-c4ccc(Cl)cc4)cn3)n2)s1 [Compound I-147]	< 100 nM
Cc1nc(C)c(-c2csc(NC(=O)[C@H]3C[C@H](Oc4ccc(C(F)(F)F)cc4)C3)n2)s1 [Compound I-365]	< 100 nM
Cc1nc(C)c(-c2csc(NC(=O)C3CN(C(=O)c4ccc(C(F)(F)F)cc4)C3)n2)s1 [Compound I-257]	100 to 1000 nM
Cc1nc(C(C)O)sc1-c1csc(NC(=O)Cc2ccc(S(=O)(=O)C(F)(F)F)cc2)n1 (racemic) [Compound I-287]	< 100 nM
Cc1nc(C)c(-c2csc(NC(=O)C3CCN(S(=O)(=O)c4ccc(F)cc4)CC3)n2)s1 [Compound I-197]	100 to 1000 nM
CCCCOC(CNc1nc(-c2sc(C)nc2C)cs1)c1ccc(Cl)cc1 (racemic) [II-50]	100 to 1000 nM
Cc1nc(C)c(-c2csc(NC(=O)CC3CN(c4ccc(C(F)(F)F)cc4)C3)n2)s1 [Compound I-492]	< 100 nM
Cc1nc(C(F)F)sc1-c1csc(NC(=O)Cc2ccc(N(C)C)cc2)n1 [Compound I-542]	100 to 1000 nM
Cc1nc(C)c(-c2csc(NC(=O)Cc3ccc(S(C)(=O)=O)cc3)n2)s1 [Compound I-119]	1000 to 8000 nM
Cc1nc(CO)sc1-c1csc(NC(=O)C2Oc3ccc(Cl)cc3O2)n1 (racemic) [Compound I-238]	< 100 nM
O=C(Cc1ccc(S(=O)(=O)C(F)(F)F)cc1)Nc1nc(-c2sc(CO)nc2CNC(=O)C2(C(F)(F)F)CC2)cs1 [Compound I-439]	< 100 nM
Cc1nc(CC#N)sc1-c1csc(NC(=O)Cc2ccc(S(=O)(=O)C(F)(F)F)cc2)n1 [Compound I-392]	< 100 nM
Cc1nc(C)c(-c2csc(NC(=O)[C@@H]3C[C@@H](Oc4ccccc4)CN3C(=O)OC(C)(C)C)n2)s1 [Compound I-242]	< 100 nM
Cc1nc(CO)sc1-c1csc(NC(=O)[C@@H]2C[C@@H](c3ccccc3)CN2S(=O)(=O)C(C)C)n1 [Compound I-316]	< 100 nM
Cc1nc(C)c(-c2nc(NC(=O)Cc3c(F)cccc3F)sc2C(=O)Nc2ccc(C#N)cc2)s1 [Compound I-84]	1000 to 8000 nM
Cc1nc(C)c(-c2csc(NC(=O)[C@@H]3C[C@@H](N4CCC(c5ccccc5)CC4)CN3C(=O)OC(C)(C)C)n2)s1 [Compound I-272]	< 100 nM
CC(=O)Nc1cccc(CC(=O)Nc2nc(-c3sc(C)nc3C)cs2)c1 [Compound I-414]	1000 to 8000 nM
Cc1nc(C)c(-c2csc(NC(=O)Cn3cc(-c4cccnc4)cn3)n2)s1 [Compound I-148]	100 to 1000 nM
Cc1nc(C)c(-c2nc(NC(=O)Cc3c(F)cccc3F)sc2-c2ccccc2Cl)s1 [Compound I-66]	1000 to 8000 nM
CCCCCCNC(=O)c1sc(NC(=O)Cc2c(F)cccc2F)nc1-c1sc(C)nc1C [Compound I-87]	1000 to 8000 nM
Cc1nc(CO)sc1-c1csc(NC(=O)CCc2ccc(Cl)cc2)n1 [Compound I-458]	< 100 nM
Cc1nc(C)c(-c2csc(NC(=O)Cc3ccc(S(=O)(=O)N4CCCCC4)cc3)n2)s1 [Compound I-156]	< 100 nM
Cc1nc(CO)sc1-c1csc(NC(=O)C2CN(c3ccc(C(F)(F)F)nc3)C2)n1 [Compound I-309]	< 100 nM
